{"source": "patent US20050074901A1", "about": "“Methods and assays for detecting and quantifying the human p53 inducible gene protein” (priority 2002, published 2005)", "key": {"PIG3 [1]": {"system": "PIG3", "assay": "Adriamycin upregulation of PIG3 over time and dose (PIG3 ELISA, FIG. 4A)", "type": "cell-based, human", "from_the_text": "The invention features a PIG3 ELISA that is a “sandwich” enzyme immunoassay employing two mouse monoclonal antibodies and methods for using the assay. A monoclonal antibody, specific for the human PIG3 protein, is immobilized onto the surface of microtiter wells provided. A kit for the immunoassay, comprising two monoclonal antibodies X1155P and X1156M, is available from Exalpha Biologicals, Inc. in Boston, Mass. As the Frontier Assay Kit. The sample to be assayed and the biotinylated detector monoclonal antibody are pipetted into the wells and allowed to incubate for two hours, during which time any PIG3 present binds to the capture and detecting antibodies. […]\nThe horseradish peroxidase catalyzes the conversion of the chromogenic substrate tetra-methylbenzidine (TMB) from a colorless solution to a blue solution (or yellow after the addition of stop reagent), the intensity of which is proportional to the amount of PIG3 protein in the sample. The colored reaction product is quantified using a spectrophotometer.\nQuantitation is achieved by the construction of a standard curve using known concentrations of PIG3 (provided lyophilized). By comparing the absorbance obtained from a sample containing an unknown amount of PIG3 with that obtained from the standards, the concentration of PIG3 in the sample is determined. […]"}, "PIG3 [2]": {"system": "PIG3", "conditions": "cited from earlier work"}}, "note": "Where two headings read alike, the source gives them in different places."}
{"smiles": "COc1cccc2c1C(=O)c1c(O)c3c(c(O)c1C2=O)C[C@@](O)(C(=O)CO)C[C@@H]3O[C@H]1C[C@H](N)[C@H](O)[C@H](C)O1", "note": "[Adriamycin, adriamycin]", "values": [{"measurement": "PIG3 level", "setting": "PIG3 [1]", "result": "upregulation of PIG3"}, {"measurement": "PIG3 induction", "setting": "PIG3 [2]; cell lines with wild-type p53 genes", "result": "strongly induced"}, {"measurement": "PIG3 induction", "setting": "PIG3 [2]; cell with mutant p53", "result": "not in the cell with mutant p53"}]}
